Results from US20240415972A1, “MICROFRAGMENTED FAT TISSUE AS DRUG DELIVERY SYSTEM IN LIVER CANCER THERAPY” (LIPOGEMS INTERNATIONAL S.P.A., priority 2021, published 2024).
Converted amounts (≈) assume the structure as drawn. Read-outs that look alike come from different tables or passages of the source.

Tests used:
[1] = system: Hep-3B cells; test: PTX anti-proliferative activity on Hep-3B cells in culture; assay type: cell-based, human
Experimental: In (A) PTX at different concentration from 0.1 to 1000 ng/ml was added to cultured Hep-3B cells After 72 hours of incubation cells were detached and counted. […] In (B) photographs (10× magnification) of Hep-3B cultured in presence of PTX showing its potent growth inhibition at concentration up to 25 ng/ml are reported.
To this end, different concentration of PTX (from 0.1 ng/ml to 1000 ng/ml) were added to culture medium.

[2] = system: MIB-1/Ki67; test: Immunohistochemistry of proliferation marker MIB-1/Ki67 in Hep-3B tumor of treated mice; assay type: in vivo, athymic nude-Foxn1nu mice; settings: DMFAT-PTX at both dosages; free PTX 10 mg/kg
Experimental: After evaluation of conventional H&E stained, ten white sections were then obtained from each sample to be processed for immunohistochemical (IHC) staining. IHC was carried out automatically by means of Leica Bond MaxTM technology (Arginase, CK-PAN, CK7 and ANTI-EPATO) and Ventana Bench Mark Ultra (Ki-67): ANTI-HEPATO: antigen retrieval 30' EDTA, (dil. 1:300 clone […] Dako-Agilent); […] antigen retrieval 30' EDTA, (dil. 1:100 Clone SP156 Cell Marque […]. clone 30-9 Roche-Ventana); CK-PAN: antigen retrieval 5' Enzyma, (dil. 1:200 clone MNF116 Dako Agilent); CK-7: antigen retrieval 15' EDTA, dil. 1:100 clone OV-TL 12/20 Dako Agilent. All section stained was evaluated on NIKON ECLIPSE E 600 Microscopy equipped with OLYMPUS DP21 Camera.

[3] = system: Hep-3B tumor; test: In vivo anti-tumor activity, single-shot local injection next to sc Hep-3B tumor
Experimental: Five-week-old athymic nude-Foxn1nu mice were purchased from Envigo (Envigo, Bresso, Italy) and were housed under pathogen-free conditions. Experiments were reviewed and approved by the licensing and ethical committee of IZSLER (Istituto Zooprofilattico Sperimentale della Lombardia e dell'Emilia Romagna, Brescia, Italy) and by the Italian Ministry of Health.
In a preliminary experiment, 3 mice were injected subcutaneously (s.c.) with 5×10^6 Hep-3B cells in 100 ul of MTG in the right flank. Mice were observed daily to establish the day of tumor appearance and when the nodule was 1 cm in diameter, mice were sacrificed and tumor was removed and investigated to verify the HCC features by histological examination. […] In the first series of experiments, mice (n=6/group) were injected with 5×10^6 Hep-3B cells in the right flank (day 0). The tumors were allowed to grow to an average 0.5/0.7 cm in diameter corresponding to a tumor volume ranging from 65 to 179 mm^3 (median weight 120 mg) that were calculated using the formula 1/6πd^3 (13). […] Loading of PTX into just thawed DMFAT specimens were performed 20-30 minutes before injection as described above, adding 1 mg of PTX (around 166 μl of the stock PTX solution 6 mg/ml) to 1 ml of DMFAT and agitation. […] According to the ethical protocol, all the mice were sacrificed when the tumor nodule reached 2.0-2.5 cm in diameter (≥2 g of weight) or, whatever the diameter, sacrificed on day 60 after the transplant. […] Animals were euthanized with carbon dioxide inhalation, followed by cervical dislocation.

IC50, dose of PTX required to reduce 50% Hep-3B growth ([1]; 72 hours of incubation, cells detached and counted): 0.015 ± 0.003 µg/mL | IC50 ([1]; Homo sapiens, Hep3B, read-out: IC50, dose of PTX required to reduce 50% Hep-3B growth, 72 hours of incubation, cells detached and counted): 0.015 ± 0.002 µg/mL (≈ 0.0176 µM) | IC90 ([1]; Homo sapiens, Hep3B, read-out: IC90, dose of PTX required to reduce 90% Hep-3B growth, 72 hours of incubation, cells detached and counted): 0.025 ± 0.008 µg/mL (≈ 0.0293 µM) | IC50 ([1]; Homo sapiens, Hep3B, restated for comparison with tissue concentrations, read-out: IC50 of the PTX on Hep-3B cells): 0.015 µg/mL (≈ 0.0176 µM)
SMILES: CC(=O)O[C@H]1C(=O)[C@@]2(C)[C@H]([C@H](OC(=O)c3ccccc3)[C@]3(O)C[C@H](OC(=O)[C@H](O)[C@@H](NC(=O)c4ccccc4)c4ccccc4)C(C)=C1C3(C)C)[C@]1(OC(C)=O)CO[C@@H]1C[C@@H]2O [PTX, Paclitaxel]
Ki67 expression in tumor [2]: Some reduction | Skin lesions / ulceration at the site of injection ([3]; 10 mg/kg (200 μg/200 μl), local sc injection): did not induce skin ulcers | Effect on tumor growth compared to CTRL ([3]; series A: 200 μl, PTX 10 mg/kg where present): No significant effect | % of mice cured ([3]; series A: PTX 200 μg (10 mg/kg) where present, tumor-free after 90 days): 0% | Day of sacrifice ([3]; series A: single shot 200 μl, PTX 200 μg (10 mg/kg) where present): 33 ± 3 | % of mice tumor-free ([3]; series A: single shot 200 μl, PTX 200 μg (10 mg/kg) where present, at 60 days): 0% | HCC (TW) (Grams ± SD) ([3]; series A: single shot 200 μl, PTX 200 μg (10 mg/kg) where present, tumor weight at sacrifice): 2.010 ± 0.377 Grams
